Data on 2 molecules can be found in patent publication US20240124938A1, “VISUAL DETECTION OF PBD INDUCED DNA CROSSLINKS” (INSERM (INSTITUT NATIONAL DE LA SANTÉ ET DE LA RECHERCHE …, priority 2019, published 2024).

The assay has as its system DNA crosslinks in mouse bone marrow cells. Kind of assay: Detection of SJG-136-click in mouse bone marrow by confocal microscopy (click labelling of DNA crosslinks). It is filed as in vivo. The settings on record: mice treated 0.3 mg/kg, 45 minutes; for click-647 (Alexa Fluor 647 azide) signal observed by confocal imaging: sites of reticulation (DNA crosslinks): 10 μm bone marrow sections of femur/tibia, click-it solution with Alexa Fluor 647 azide, FIG. 1 middle column. On the procedure: FIG. 1 represents confocal microscopy observations of samples of mice bone marrow in mouse femur tissues treated with 0.3 mg·kg^−1 of either SJG136 (top line of images) (corresponding to a compound outside of the invention) or SJG136-click (bottom line of images) (corresponding to the compound of formula (IV) according to the invention). The nucleus of the sample's cells are identified on the left column by DAPI staining. The middle column represents images obtained by exposing clickable 647 fluorophore (Alexa Fluor™ 647 azide, sold by the company Thermo Fisher) to the samples treated with SJG136 or SJG136-click to detect the SJG136 or SJG136-click. On the right column, observations from the left and middle column are merged. Some of the observable DNA crosslinking are indicated by white arrows in the middle and right cases of the bottom line.
Mice were treated with a compound of formula (IV) according to the invention (0,3 mg/kg) during 45 minutes.
The bone(s) (i.e. femur and tibia) were dissected from the mouse and surrounding muscle(s) were removed. Said bone(s) were immediately fixed with 4% ice-cold PFA solution for 24 hours at 4° C. in a 15 mL conical tube. The bone sample(s) were then washed three times with PBS. Each wash was carried out for 5 minutes at 4° C. with 7 mL of PBS under constant agitation.
A DCAL solution, containing 0.5 M of EDTA, was prepared by dissolving 186.1 g of EDTA in 800 mL of ddH2O with the addition of about 20 g of NaOH pellets to bring the mixture to a pH in the range of 7.4-7.6 by continuous stirring. The volume is adjusted to 1 L and the solution is filtered on a 0.5 μm filter.
A cryoprotectant (CPT) solution (1×) was also prepared by dissolving 200 g of sucrose and 20 g of polyvinylpyrrolidone (PVP) in 700 mL of PBS under constant stirring by a magnetic stirrer. The volume was then adjusted to 1 L and the solution was mixed until a homogeneous solution was obtained. […]

Regarding `C=C1C[C@H]2C=Nc3cc(OCCCOc4cc5c(cc4OC)C(=O)N4CC(=C)C[C@H]4C=N5)c(OC)cc3C(=O)N2C1` [SJG136, reference compound], the “click-647 (Alexa Fluor 647 azide) signal observed by confocal imaging: sites of reticulation (DNA crosslinks)” value was “nothing is visible”.
Take `C#CCC(COc1cc2c(cc1OC)C(=O)N1CC(=C)CC1C=N2)COc1cc2c(cc1OC)C(=O)N1CC(=C)CC1C=N2` (stereo not drawn) [SJG136-click, 8,8′-((2-(prop-2-yn-1-yl)propane-1,3-diyl)bis(oxy))bis(7-methoxy-2-methylene-2,3-dihydro-1H-benzo[e]pyrrolo[1,2-a][1,4]diazepin-5(11aH)-one)]: the “click-647 (Alexa Fluor 647 azide) signal observed by confocal imaging: sites of reticulation (DNA crosslinks)” value is listed as “several light spots, clearly distinct one from the others”. Besides, the “localisation of click-647 light spots relative to DAPI-stained nuclei (merged image)” value (bone marrow sections, merge of DAPI and click-647 images, FIG. 1 right column) is “all the light spots observed are within the nucleus of cells”.
